Assays:
Format in all cases: physicochemical
[1] = Dye stabilization effect under daylight exposure (Test Examples 6-91); design: key to Δ E: color difference ΔE in Lab vs. color before daylight exposure; key to Appearance (visual determination): ◯: no change; Δ: almost no change; x: change; conditions: photostabilizer 0.05 wt %, daylight exposure (80 MJ)
Procedure: For observation of the change of the appearance of each test sample (determination based on visual observation) and the measurement of color difference (ΔE) before and after daylight exposure (80 MJ), the test sample was prepared.
(§1) With a spectrophotometer, the color was measured on the Lab coordinate system, to calculate the color difference on the basis of the color before daylight exposure. More specifically, the color difference (ΔE) was calculated on the basis of the measured values (L1, a1, b1) before daylight exposure.

[2] = Dye stabilization effect in blend with sequestering agents (Test Examples 212 to 275); conditions: daylight exposure (80 MJ)
Procedure: Each test sample was prepared for observation of the change of the appearance of each test sample (determined visually) and measurement of the color difference (ΔE) before and after daylight exposure (80 MJ).
as §1

[3] = Stabilization effect on perfume under daylight exposure (Test Examples 92 to 181); design: key: ◯: no change; Δ: almost no change; x: change; conditions: daylight exposure (80 MJ)
Procedure: Each test sample was prepared for observation of the change of the odor of the test sample (determined by perfume coordinator) before and after daylight exposure (80 MJ).

[4] = Drug stabilization effect blended with sequestering agent (Test Examples 372 to 391); design: key to Appearance (visual determination): ◯: no change; Δ: almost no change; x: change; conditions: photostabilizer blend amount 0.03, daylight exposure (80 MJ)
Procedure: Then, the photostabilization effect of the pyridazine derivative in combination with sequestering agents on each drug and the change of the appearance of each composition were examined, by using the following formulation for assessment.
(§2) For observation of the change of the appearance of each test sample (determination based on visual observation) and the measurement of the remaining ratio by liquid chromatography before and after daylight exposure (80 MJ), the test sample was prepared.

[5] = Drug stabilization effect under daylight exposure (Test Examples 182 to 211); design: key to Appearance (visual determination): ◯: no change; Δ: almost no change; x: change; conditions: photostabilizer 0.05 wt %, daylight exposure (80 MJ); for Remaining ratio (%): liquid chromatography
Procedure: as §2

[6] = dye Blue 1 (Brilliant Blue FCF) 0.0001 wt %
[7] = dye Green 3 (Fast Green FCF) 0.001 wt %
[8] = dye Red 227 (Acid Fuchsine D) 0.0001 wt %
[9] = dye Yellow 5 (Sunset Yellow FCF) 0.001 wt %
[10] = dyes Yellow 203 (Quinoline Yellow WS) 0.0001 + Yellow 5 (Sunset Yellow FCF) 0.0001 wt %
[11] = natural perfume Nelori oil, photostabilizer 0.1 wt %
[12] = synthetic perfume Limonene oil, photostabilizer 0.05 wt %
[13] = drug L-ascorbic acid 2-glucoside 2.0 wt %
[14] = dyes Red 213 (Rhodamine B) 0.00001 + Blue 1 (Brilliant Blue FCF) 0.00001 wt %
[15] = dyes Red 227 (Acid Fuchsine D) 0.0001 + Yellow 5 (Sunset Yellow FCF) 0.0001 wt %
[16] = drug dl-α-tocopherol 2-L-ascorbic acid phosphate diester potassium salt 0.01 wt %
[17] = dyes Red 401 (Violanin R) 0.0001 + Blue 1 (Brilliant Blue FCF) 0.00001 wt %
[18] = drug dibutylhydroxytoluene 0.01 wt %

## c1cc(N2CCOCC2)nnc1N1CCOCC1 [3,6-Dimorpholinopyridazine]
[1]; [6]
  Appearance (visual determination): ◯
  Δ E: 1.25
[1]; [7]
  Appearance (visual determination): ◯
  Δ E: 0.44
[1]; [8]
  Appearance (visual determination): ◯
  Δ E: 0.53
[1]; [9]
  Appearance (visual determination): ◯
  Δ E: 0.51
[1]; [10]
  Appearance (visual determination): ◯
  Δ E: 0.40
[2]; dyes Red 213 (Rhodamine B) 0.00001 + Blue 1 (Brilliant Blue FCF) 0.00001, no sequestering agent, photostabilizer blend amount 0.02
  Δ E: 1.98
[2]; dyes Red 213 (Rhodamine B) 0.00001 + Blue 1 (Brilliant Blue FCF) 0.00001, with ethylenediaminehydroxyethyl trisodium triacetate 0.03, photostabilizer blend amount 0.02
  Δ E: 1.32
[3]; base perfume Fruity, photostabilizer 0.1 wt %
  odor determination: ◯
[3]; [11]
  odor determination: ◯
[3]; [12]
  odor determination: ◯
[4]; drug dibutylhydroxy toluene 0.01, no sequestering agent
  Appearance (visual determination): Δ
[4]; drug dibutylhydroxy toluene 0.01, with sodium metaphosphate 0.03
  Appearance (visual determination): ◯
[5]; [13]
  Appearance (visual determination): ◯
  Remaining ratio (%): 98.5%

## Oc1cc(N2CCCCC2)cnn1 [3-Hydroxy-5-piperidinopyridazine, 3-hydroxy-5-piperidinopyridazine]
[1]; [6]
  Appearance (visual determination): ◯
  Δ E: 1.28
[1]; [7]
  Appearance (visual determination): ◯
  Δ E: 0.45
[1]; [8]
  Appearance (visual determination): ◯
  Δ E: 0.52
[1]; [9]
  Appearance (visual determination): ◯
  Δ E: 0.53
[1]; [14]
  Appearance (visual determination): ◯
  Δ E: 1.01
[1]; [15]
  Appearance (visual determination): ◯
  Δ E: 0.68
[2]; dye Blue 1 (Brilliant Blue FCF) 0.001, photostabilizer 0.02, no sequestering agent
  Δ E: 1.74
[2]; dye Blue 1 (Brilliant Blue FCF) 0.001, photostabilizer 0.02, with ethylenediaminehydroxyethyl trisodium triacetate 0.05
  Δ E: 0.54
[2]; dye Blue 1 (Brilliant Blue FCF) 0.001, photostabilizer 0.02, with ethylenediaminetetraacetate trisodium 0.05
  Δ E: 0.78
[2]; dye Blue 1 (Brilliant Blue FCF) 0.001, photostabilizer 0.02, with sodium metaphosphate 0.05
  Δ E: 0.88
[2]; dyes Red 106 (Acid Red) 0.00001 + Yellow 203 (Quinoline Yellow WS) 0.0001, no sequestering agent, photostabilizer blend amount 0.01
  Δ E: 1.08
[2]; dyes Red 106 (Acid Red) 0.00001 + Yellow 203 (Quinoline Yellow WS) 0.0001, with ethylenediaminehydroxyethyl trisodium triacetate 0.02, photostabilizer blend amount 0.01
  Δ E: 0.72
[3]; base perfume Rose, photostabilizer 0.05 wt %
  odor determination: ◯
[3]; base perfume Woody, photostabilizer 0.1 wt %
  odor determination: ◯
[3]; natural perfume Lavender oil, photostabilizer 0.1 wt %
  odor determination: ◯
[3]; natural perfume Rose oil, photostabilizer 0.05 wt %
  odor determination: ◯
[3]; synthetic perfume Citral, photostabilizer 0.1 wt %
  odor determination: ◯
[3]; synthetic perfume Linalyl acetate, photostabilizer 0.1 wt %
  odor determination: ◯
[4]; drug dl-α-tocopherol 2-L-ascorbic acid phosphate diester potassium salt 0.01, no sequestering agent
  Appearance (visual determination): Δ
[4]; drug dl-α-tocopherol 2-L-ascorbic acid phosphate diester potassium salt 0.01, with ethylenediaminehydroxyethyl Triacetate trisodium 0.03
  Appearance (visual determination): ◯
[5]; [16]
  Appearance (visual determination): ◯
  Remaining ratio (%): 98.7%
[5]; drug salicylic acid 0.1 wt %
  Appearance (visual determination): ◯
  Remaining ratio (%): 98.5%

## Oc1ccc(N2CCOCC2)nn1 [3-Hydroxy-6-morpholinopyridazine, 6-Morpholino-3-hydroxypyridazine]
[1]; [6]
  Appearance (visual determination): ◯
  Δ E: 1.32
[1]; [7]
  Appearance (visual determination): ◯
  Δ E: 0.43
[1]; [8]
  Appearance (visual determination): ◯
  Δ E: 0.54
[1]; [9]
  Appearance (visual determination): ◯
  Δ E: 0.53
[1]; [17]
  Appearance (visual determination): ◯
  Δ E: 0.52
[1]; [10]
  Appearance (visual determination): ◯
  Δ E: 0.44
[2]; dye Green 3 (Fast Green FCF) 0.001, photostabilizer 0.02, no sequestering agent
  Δ E: 0.75
[2]; dye Green 3 (Fast Green FCF) 0.001, photostabilizer 0.02, with ethylenediaminetetraacetate trisodium 0.1
  Δ E: 0.32
[2]; dye Green 3 (Fast Green FCF) 0.001, photostabilizer 0.02, with sodium metaphosphate 0.1
  Δ E: 0.36
[2]; dye Green 3 (Fast Green FCF) 0.001, photostabilizer 0.02, with sodium polyphosphate 0.1
  Δ E: 0.52
[2]; dyes Red 106 (Acid Red) 0.00001 + Yellow 5 (Sunset Yellow FCF) 0.0001, no sequestering agent, photostabilizer blend amount 0.01
  Δ E: 1.38
[2]; dyes Red 106 (Acid Red) 0.00001 + Yellow 5 (Sunset Yellow FCF) 0.0001, with ethylenediaminetetraacetate trisodium 0.02, photostabilizer blend amount 0.01
  Δ E: 0.92
[3]; [11]
  odor determination: ◯
[3]; natural perfume Ylang ylang oil, photostabilizer 0.2 wt %
  odor determination: ◯
[3]; [12]
  odor determination: ◯
[3]; synthetic perfume Linalool, photostabilizer 0.05 wt %
  odor determination: ◯
[4]; drug L-ascorbic acid 2-glucoside 2.0, no sequestering agent
  Appearance (visual determination): ◯
[4]; drug L-ascorbic acid 2-glucoside 2.0, with sodium metaphosphate 0.03
  Appearance (visual determination): ◯
[5]; [18]
  Appearance (visual determination): ◯
  Remaining ratio (%): 98.0%
